# Experimental data: patent US20070099931A1, “Pharmaceutical dosage forms and compositions” (Wyeth, priority 2004, published 2007)
# Columns and labels:
# [1] = marmosets, 2 mg/kg im; cited from earlier work
# [2] = tested on: glutamate and acetylcholine release; settings: dentate gyrus of the hippocampus; cited from earlier work
# [3] = aged rhesus monkeys, optimal dose 1 mg/kg po; cited from earlier work
# [4] = molecular target: T1, 5-HT1A receptor (Homo sapiens, UniProt P08908); settings: in vitro; cited from earlier work
# T1 sequence (P08908 1-422): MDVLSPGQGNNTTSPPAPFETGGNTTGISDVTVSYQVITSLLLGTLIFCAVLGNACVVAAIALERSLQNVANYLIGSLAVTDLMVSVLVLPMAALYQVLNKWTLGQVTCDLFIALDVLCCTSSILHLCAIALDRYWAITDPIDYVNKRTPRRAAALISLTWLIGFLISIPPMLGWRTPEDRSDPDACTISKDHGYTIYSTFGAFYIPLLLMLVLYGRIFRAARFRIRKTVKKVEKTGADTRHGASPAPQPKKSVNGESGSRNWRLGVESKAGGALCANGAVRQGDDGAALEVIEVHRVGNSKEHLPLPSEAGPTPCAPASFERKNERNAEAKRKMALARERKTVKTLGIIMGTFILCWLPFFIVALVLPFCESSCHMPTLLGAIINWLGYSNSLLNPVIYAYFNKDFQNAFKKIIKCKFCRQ
# [5] = tested on: 5-HT1A receptor; settings: chronic administration; cited from earlier work
# [6] = Solubility in water; type: physicochemical; settings: 25° C.
# [7] = tested on: hippocampal extracellular 5-HT; settings: cited from earlier work
# [8] = tested on: 5-HT1A agonist discriminative stimulus cue; settings: 0.01-1 mg/kg im; cited from earlier work
structure (smiles),measurement,setting,value
"C[C@H](CN(C(=O)c1ccc(C#N)cc1)c1ccccn1)N1CCN(c2cccc3c2OCCO3)CC1 [lecozotan, 4-cyano-N-{(2R)-2-[4-(2,3-dihydro-benzo[1,4]dioxin-5-yl)-piperazin-1-yl]-propyl}-N-pyridin-2-yl-benzamide]",learning deficits induced by specific cholinergic lesions of the hippocampus,[1],reversed
same,learning deficits induced by the glutamatergic antagonist MK-801,[1],reversed
same,potassium chloride-stimulated release of glutamate and acetylcholine,[2],significantly potentiated
same,task performance efficiency,[3],significant improvement in task performance efficiency
same,5-HT1A receptor binding and intrinsic activity,[4],potent and selective 5-HT1A receptor antagonist
same,5-HT1A receptor tolerance or desensitization,[5],did not induce 5-HT1A receptor tolerance or desensitization
same,solubility,[6],~51 mg/mL
same,effect alone on hippocampal extracellular 5-HT,[7]; doses 10-fold higher than 0.3 mg/kg sc,had no effects alone
same,effect on decrease in hippocampal extracellular 5-HT induced by 8 OH-DPAT (0.3 mg/kg sc),[7]; lecozotan 0.3 mg/kg sc,antagonized the decrease in hippocampal extracellular 5-HT
same,blockade of the 5-HT1A agonist discriminative stimulus cue,[8],dose-related blockade
same,substitution for 8-OH-DPAT,[8],did not substitute for 8-OH-DPAT
